The source of these data is patent US20210113540A1, “TREATMENT AGENT AND PHARMACEUTICAL COMPOSITION FOR GLIOMA” (NATIONAL UNIVERSITY CORPORATION HOKKAIDO UNIVERSITY, priority 2018, published 2021).

In assay [1] the test system is Glioma-initiating cell E6R. Put plainly: Cell growth test (MTT) on GICR strain E6R. The format is cell-based. As to conditions: Homo sapiens, 72 h. Here is the method:
GICR strain: Cell growth test was performed using E6R (Stem Cells. 2016 August; 34(8):2016-25.).
(§1) Cell culture solutions were obtained by mixing a medium prepared by adding various compounds, bFGF (Peprotech, 100-18B) and EGF (Peprotech, 100-15) to DMEM/Ham's F-12 medium (SIGMA, D8062) and a medium prepared by adding FCS (Hyclone, SH30910.03) to DMEM medium (Nacalai tesque, 08458-45) to a concentration of 10% for use.
(§2) Each compound adjusted to a predetermined concentration was dispensed into a 96-well plate (Falcon, 353072) at 80 μL/well, and E6 cells and E6R cells were seeded on the 96-well plate at 1000 cells/80 μL/well. After 3 days, 10 μL of an MTT reagent (DOJINDO, 341-01823) was added, the cells were incubated at 37° C. for 3 hours, the culture solution was removed, and 100 μL of DMSO was added. The absorbance at 570 nm was measured using Bio-Rad iMark (Bio-Rad, 168-1130JA). The growth inhibition rate at each test compound concentration was calculated by the following formula using the absorbance as an index of the viable cell count.
(§3) The growth inhibition rate at each compound concentration was determined, and the 50% growth inhibition concentration GI50 (μmol/L)] was calculated using XLfit. Growth inhibition rate (%)=(Amount of luminescence from wells supplemented with test compound)/(Amount of luminescence from wells supplemented with DMSO)×100
(§4) GIC and GICR strain: Cell growth test was performed using E6, E6R, E16, and E16R (Stem Cells. 2016 August; 34(8): 2016-25.).

Assay [2] deals with Glioma-initiating cell E16R. Put plainly: Cell proliferation test (MTT) on GICR strain E16R. The format is cell-based. As to conditions: Homo sapiens, 72 h, MTT after 3 days. The method, then: as §4, §1, §2, §3
A further assay concerns the target T1, recombinant human DHODH (Homo sapiens, UniProt Q02127).
T1 construct: DHODH, 31-395aa, Human, His tag, E. coli, ATGP1615; His tag; purchased ATGen ATGP1615; host or cells: E. coli
Briefly: DHODH enzyme assay (DCIP quenching). Type of assay: biochemical. As to conditions: pH 8.0, DCIP absorbance 600 nm, 50 minutes; read-out: DHODH enzyme inhibition IC50. The method, then:
For DHODH enzyme assay, “Benjamin Bader, Wolfgang Knecht, Markus Fries, and Monika Löffler. Expression, Purification, and Characterization of Histidine-Tagged Rat and Human Flavoenzyme Dihydroorotate Dehydrogenase. Protein Expression and Purification, 1998, 13, 414-422” was referred to.
DHODH activity was evaluated using an enzyme assay system that couples with an assay in a blue-coloring dye 2,6-dichlorophenol indophenol (DCIP, MP BIOMEDICALS, MP150118) quenching assay. Purified recombinant human DHODH (DHODH, 31-395aa, Human, His tag, E. coli, ATGP1615) was purchased from ATGen. […] Enzyme activity was assessed by measuring the decrease in DCIP absorbance (600 nm) for 50 minutes using an Envision plate-reading spectrophotometer (PerkinElmer Co., Ltd.). […]
Enzyme reaction inhibition rate (%)=(Amount of luminescence from wells supplemented with test compound)/(Amount of luminescence from wells supplemented with DMSO)×100

The test system of assay [3] is Glioma-initiating cell E16. Put plainly: Cell proliferation test (MTT) on GIC strain E16. Type of assay: cell-based. As to conditions: Homo sapiens, 72 h, MTT after 3 days. The method, then:
as §4, §1, §2, §3

The subject of assay [4] is Glioma-initiating cell E6. Put plainly: Cell proliferation test (MTT) on GIC strain E6. The format is cell-based. As to conditions: Homo sapiens, 72 h, MTT after 3 days. Here is the method: as §4, §1, §2, §3
Where [5] appears, read: MTT after 3 days, read-out: ER6 GI50.
[6] abbreviates: class of ER6 GI50, MTT after 3 days, read-out: Evaluation.

pIC50: −log10 of the molar value. Read-outs that look alike come from different tables or passages of the source.

T1 sequence (Q02127 31-395): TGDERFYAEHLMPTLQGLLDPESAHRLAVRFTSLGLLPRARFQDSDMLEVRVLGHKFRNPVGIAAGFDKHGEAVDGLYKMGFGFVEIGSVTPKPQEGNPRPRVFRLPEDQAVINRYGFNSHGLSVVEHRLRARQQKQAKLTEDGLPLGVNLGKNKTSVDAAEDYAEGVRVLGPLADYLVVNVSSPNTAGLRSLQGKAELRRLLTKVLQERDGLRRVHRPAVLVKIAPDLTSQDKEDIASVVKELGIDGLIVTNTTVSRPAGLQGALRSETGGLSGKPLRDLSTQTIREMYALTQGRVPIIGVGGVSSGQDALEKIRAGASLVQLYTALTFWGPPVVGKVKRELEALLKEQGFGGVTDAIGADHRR

In the case of `O=C(O)c1cc(C2CC2)ccc1Nc1ccc2c(cnn2Cc2ccccc2)c1` [Compound 1, 2-((1-benzyl-1h-indazole-5-yl)amino)-5-cyclopropylbenzoate], the GI50 in assay [1] (setting [5]) was 30.6 nmol/L; in assay [1] (setting [6]), less than 1000 nmol/L.
In the same order, the values of `O=C(O)c1cc(C2CC2)cnc1Nc1ccc2c(ccn2CC2CCCCC2)c1` [Compound 2, 2-((1-(cyclohexylmethyl)-1H-indole-5-yl)amino)-5-cyclopropylnicotinic acid] are 82.6 nmol/L and less than 1000 nmol/L.
The like results for `O=C(O)c1cc(C2CC2)cnc1Nc1cccc2c1ccn2-c1ccccc1` [Compound 3, 5-cyclopropyl-2-((1-phenyl-1H-indole-4-yl)amino)nicotinic acid] were, in that order, 11 nmol/L and less than 1000 nmol/L.
In the same order, the values of `Cn1ccc2cc(Nc3ncc(C4CC4)cc3C(=O)O)cc(-c3ccccc3F)c21` [Compound 4, 5-cyclopropyl-2-((7-(2-fluorophenyl)-1-methyl-1H-indole-5-yl)amino)nicotinic acid] are 1.69 nmol/L and less than 1000 nmol/L.
As to `Cn1ccc2cc(Nc3ncc(C4CC4)cc3C(=O)O)cc(-c3ccc(C(F)(F)F)cc3)c21` [Compound 5], the GI50 in assay [1] (setting [5]) was less than 0.14 nmol/L; in assay [1] (setting [6]), less than 1000 nmol/L.
The like results for `Cn1ccc2cc(Nc3ncc(C4CC4)cc3C(=O)O)cc(-c3cccc(Cl)c3)c21` [Compound 6, 2-((7-(3-chlorophenyl)-1-methyl-1H-indole-5-yl)amino)-5-cyclopropylnicotinic acid] were, in that order, 2.23 nmol/L and less than 1000 nmol/L.
The like results for `Cn1ccc2cc(Nc3ncc(C4CC4)cc3C(=O)O)cc(-c3ccc(OC(F)(F)F)cc3)c21` [Compound 7, 5-cyclopropyl-2-((1-methyl-7-(4-(trifluoromethoxy)phenyl)-1H-indole-5-yl)amino)nicotinic acid] were, in that order, less than 0.14 nmol/L and less than 1000 nmol/L.
On to `O=C(O)c1cc(C2CC2)cnc1Nc1cccc2c(-c3ccccc3)cccc12` [Compound 9, 5-cyclopropyl-2-((5-phenylnaphthalene-1-yl)amino)nicotinic acid], for which the GI50 was 4.35 nmol/L in assay [1] (setting [5]) and less than 1000 nmol/L in assay [1] (setting [6]).
In the same order, the values of `O=C(O)c1cc(C2CC2)cnc1Nc1ccc2c(-c3ccccc3)cccc2c1` [Compound 10, 5-cyclopropyl-2-((5-phenylnaphthalene-2-yl)amino)nicotinic acid] are 1.77 nmol/L and less than 1000 nmol/L.
The like results for `Cn1ccc2cc(Nc3ncc(C4CC4)cc3C(=O)O)cc(-c3ccccc3)c21` [Compound 11, 5-cyclopropyl-2-((1-methyl-7-phenyl-1H-indole-5-yl)amino)nicotinic acid] were, in that order, 4.77 nmol/L and less than 1000 nmol/L.
With `O=C(O)c1cc(C2CC2)cnc1Nc1ccc2c(ccn2-c2cccc(F)c2)c1` [Compound 12, 5-cyclopropyl-2-((1-(3-fluorophenyl)-1H-indole-5-yl)amino)nicotinic acid], the GI50 in assay [1] (setting [5]) is 23.9 nmol/L; in assay [1] (setting [6]), less than 1000 nmol/L.
Turning to `O=C(O)c1cc(C2CC2)cnc1Nc1cc2ccn(Cc3ccccc3)c2cc1F` [Compound 13, 2-((1-benzyl-6-fluoro-1H-indole-5-yl)amino)-5-cyclopropylnicotinic acid], the figures for the GI50 in assay [1] (setting [5]) and in assay [1] (setting [6]) were 11.4 nmol/L and less than 1000 nmol/L, respectively.
The like results for `O=C(O)c1cc(C2CC2)cnc1Nc1c(F)cc2c(ccn2Cc2ccccc2)c1F` [Compound 14, 2-((1-benzyl-4,6-difluoro-1H-indole-5-yl)amino)-5-cyclopropylnicotinic acid] were, in that order, 47.6 nmol/L and less than 1000 nmol/L.
The like results for `Cn1ccc2cc(Nc3ncc(C4CC4)cc3C(=O)O)cc(C3=CCOCC3)c21` [Compound 15, 5-cyclopropyl-2-((7-(3,6-dihydro-2H-pyran-4-yl)-1-methyl-1H-indole-5-yl)amino)nicotinic acid] were, in that order, 25.9 nmol/L and less than 1000 nmol/L.
In the same order, the values of `O=C(O)c1cc(C2CC2)cnc1Nc1ccc2c(-c3ccccc3)nccc2c1` [Compound 16, 5-cyclopropyl-2-((1-phenylisoquinoline-6-yl)amino)nicotinic acid] are 3.19 nmol/L and less than 1000 nmol/L.
With `Cn1ccc2cc(Nc3ncc(C4CC4)cc3C(=O)O)cc(-c3ccc(C#N)cc3)c21` [Compound 17, 2-((7-(4-cyanophenyl)-1-methyl-1H-indole-5-yl)amino)-5-cyclopropylnicotinic acid], the values for the GI50 in assay [1] (setting [5]) and in assay [1] (setting [6]) were 2.96 nmol/L and less than 1000 nmol/L, respectively.
In the same order, the values of `Cn1ccc2cc(Nc3ncc(C4CC4)cc3C(=O)O)cc(-c3ccc(Cl)cc3)c21` [Compound 18, 2-((7-(4-chlorophenyl)-1-methyl-1H-indole-5-yl)amino)-5-cyclopropylnicotinic acid] are 0.62 nmol/L and less than 1000 nmol/L.
The like results for `O=C(O)c1cc(C2CC2)ccc1Nc1cccc2c1ccc(=O)n2-c1ccccc1` [Compound 19, 5-cyclopropyl-2-((2-oxo-1-phenyl-1,2-dihydroquinoline-5-yl)amino)benzoic acid] were, in that order, 5.8 nmol/L and less than 1000 nmol/L.
Regarding `Cn1ccc2cc(Nc3ncc(C4CC4)cc3C(=O)O)cc(C3=CCCCC3)c21` [Compound 20], the GI50 in assay [1] (setting [5]) is 0.36 nmol/L; in assay [1] (setting [6]), less than 1000 nmol/L.
In general, pIC50 refers to the IC50 on a negative log10 scale, so that one unit is a factor of ten. In the case of `O=C(O)c1cc(C2CC2)cnc1Nc1ccc2c(ccn2Cc2cccc(F)c2)c1` [Compound 21, 5-cyclopropyl-2-((1-(3-fluorobenzyl)-1H-indole-5-yl)amino)nicotinic acid], the GI50 was 1960 nmol/L in assay [2] (read-out: GI50 (nmol/L) of Glioma-initiating cell E16R); 1000 to 10000 nmol/L in assay [2] (read-out: GI50 class of Glioma-initiating cell E16R); 11800 nmol/L in assay [3] (read-out: GI50 (nmol/L) of Glioma-initiating cell E16); not below 10000 nmol/L in assay [3] (read-out: GI50 class of Glioma-initiating cell E16); 100 nmol/L in assay [4] (read-out: GI50 (nmol/L) of Glioma-initiating cell E6); less than 1000 nmol/L in assay [4] (read-out: GI50 class of Glioma-initiating cell E6). In addition, the GI50 is 655 nmol/L in assay [1] (MTT after 3 days, read-out: GI50 (nmol/L) of Glioma-initiating cell E6R) and less than 1000 nmol/L in assay [1] (MTT after 3 days, read-out: GI50 class of Glioma-initiating cell E6R). The negative logarithm of the IC50 (pIC50) on recombinant human DHODH was 7.54.
